Assays:
DPPH scavenging activity = type: biochemical; settings: 0.5 mg/mL, glutathione at the same concentration
[1] = system: pancreatic cholesterol esterase (CE); test: Pancreatic CE inhibitory activity; type: biochemical; settings: 1 mg/mL (Figure 6a); pNPB substrate, pH 7.2, 37 °C, 30 min, 405 nm
[2] = Hydroxyl radical scavenging activity; type: biochemical; settings: 0.5 mg/mL; amount higher than that of glutathione at the same concentration
[3] = target: angiotensin-converting enzyme (ACE) (UniProt P12821)
[4] = target: pancreatic cholesterol esterase (CE) (UniProt P19835)
Chain of UniProt P19835 (P19835 21-753): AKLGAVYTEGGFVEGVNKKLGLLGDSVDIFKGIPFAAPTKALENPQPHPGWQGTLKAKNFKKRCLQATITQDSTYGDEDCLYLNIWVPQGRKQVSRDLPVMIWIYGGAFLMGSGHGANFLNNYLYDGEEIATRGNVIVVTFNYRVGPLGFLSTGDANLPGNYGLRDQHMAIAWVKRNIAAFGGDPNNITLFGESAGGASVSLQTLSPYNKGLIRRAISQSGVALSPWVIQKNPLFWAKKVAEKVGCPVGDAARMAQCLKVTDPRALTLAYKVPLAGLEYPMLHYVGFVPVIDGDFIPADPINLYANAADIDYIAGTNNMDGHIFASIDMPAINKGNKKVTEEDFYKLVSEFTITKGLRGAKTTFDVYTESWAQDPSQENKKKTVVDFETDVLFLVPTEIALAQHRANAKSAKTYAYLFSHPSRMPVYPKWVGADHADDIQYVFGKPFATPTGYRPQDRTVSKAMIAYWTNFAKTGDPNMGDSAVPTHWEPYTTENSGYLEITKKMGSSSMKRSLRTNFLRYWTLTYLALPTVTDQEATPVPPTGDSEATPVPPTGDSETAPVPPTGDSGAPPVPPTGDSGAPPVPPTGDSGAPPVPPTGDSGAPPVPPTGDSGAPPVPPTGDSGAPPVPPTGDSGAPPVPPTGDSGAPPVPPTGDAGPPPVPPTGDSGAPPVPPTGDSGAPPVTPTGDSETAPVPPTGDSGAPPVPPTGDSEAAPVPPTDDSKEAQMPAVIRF

Chain of UniProt P12821 (P12821 30-1256): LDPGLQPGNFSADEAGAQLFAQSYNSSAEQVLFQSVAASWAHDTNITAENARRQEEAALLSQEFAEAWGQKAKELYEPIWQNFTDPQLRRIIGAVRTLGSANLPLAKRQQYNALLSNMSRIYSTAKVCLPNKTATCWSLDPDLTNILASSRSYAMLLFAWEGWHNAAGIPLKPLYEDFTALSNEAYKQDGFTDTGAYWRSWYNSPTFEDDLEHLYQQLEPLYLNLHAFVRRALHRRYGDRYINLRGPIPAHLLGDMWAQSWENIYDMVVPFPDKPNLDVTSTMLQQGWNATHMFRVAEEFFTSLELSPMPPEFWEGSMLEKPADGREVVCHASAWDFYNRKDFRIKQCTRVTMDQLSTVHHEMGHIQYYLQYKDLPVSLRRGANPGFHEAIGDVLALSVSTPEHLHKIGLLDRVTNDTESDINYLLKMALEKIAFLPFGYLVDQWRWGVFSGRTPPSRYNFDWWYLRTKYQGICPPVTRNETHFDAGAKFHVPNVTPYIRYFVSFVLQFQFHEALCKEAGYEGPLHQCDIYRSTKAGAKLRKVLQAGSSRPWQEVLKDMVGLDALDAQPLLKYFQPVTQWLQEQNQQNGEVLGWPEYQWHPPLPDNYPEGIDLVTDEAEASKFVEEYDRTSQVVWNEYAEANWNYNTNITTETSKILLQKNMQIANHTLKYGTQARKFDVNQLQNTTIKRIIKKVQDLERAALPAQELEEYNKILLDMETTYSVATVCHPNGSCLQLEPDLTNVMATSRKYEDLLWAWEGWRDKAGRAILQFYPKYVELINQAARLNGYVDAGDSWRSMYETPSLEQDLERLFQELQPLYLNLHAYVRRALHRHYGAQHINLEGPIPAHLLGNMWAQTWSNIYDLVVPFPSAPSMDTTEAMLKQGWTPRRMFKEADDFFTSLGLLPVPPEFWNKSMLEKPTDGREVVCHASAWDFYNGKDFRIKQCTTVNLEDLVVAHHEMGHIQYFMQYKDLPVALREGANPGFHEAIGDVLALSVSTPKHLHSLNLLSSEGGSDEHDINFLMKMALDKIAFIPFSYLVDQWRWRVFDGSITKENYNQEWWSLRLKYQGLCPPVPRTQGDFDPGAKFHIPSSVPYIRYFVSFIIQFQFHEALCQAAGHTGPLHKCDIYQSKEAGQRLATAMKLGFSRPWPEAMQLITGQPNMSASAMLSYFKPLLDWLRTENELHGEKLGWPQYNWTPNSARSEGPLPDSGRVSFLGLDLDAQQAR

Molecule: NDHFVKL [Peptide D-3, peptide NDHFVKL identified in loach hydrolysate component F2, solid-phase synthesized]
- DPPH scavenging activity as percentage of that of glutathione (DPPH scavenging activity): more than 90%
- Pancreatic CE inhibition [1]: exhibited inhibitory effects on pancreatic CE

Molecule: SERDPSNIKWGDAGAQ [Peptide D-1, peptide … identified in loach hydrolysate component F2, solid-phase synthesized]
- DPPH scavenging activity as percentage of that of glutathione (DPPH scavenging activity): more than 90%
- Hydroxyl radical scavenging activity: excess over glutathione [2]: 15.87%

Molecule: DAGAGIAL [Peptide D-5, peptide DAGAGIAL identified in loach hydrolysate component F2, solid-phase synthesized]
- DPPH scavenging activity as percentage of that of glutathione (DPPH scavenging activity): more than 90%

Molecule: AFRVPTP [peptide D-4 (AFRVPTP)]
- ACE inhibitory activity, percent inhibition (FAPGG hydrolysis; peptide concentration not given) [3]: 92.1%
- IC50 of ACE inhibition (enzyme activity, FAPGG hydrolysis, absorbance at 340 nm, 37 °C, pH 8.3) [3]: 0.12 mM

Molecule: TVDGPSGKLWR [peptide D-2 (…)]
- IC50 of pancreatic CE inhibition (enzyme activity, pNPB hydrolysis, absorbance at 405 nm, 37 °C, pH 7.2) [4]: 2.62 mM
